Like-named read-outs stand apart in the source and are kept apart here.
Tests used:
NDM-1 = NDM-1 (Klebsiella pneumoniae, UniProt C7C422); assay: biochemical; assay type: biochemical; conditions: read-out: NDM-1 IC50
IMP-1 = IMP-1 (Serratia marcescens, UniProt P52699); assay: biochemical; assay type: biochemical; conditions: read-out: IMP-1 IC50
VIM-1 = VIM-1 (Pseudomonas aeruginosa (strain ATCC 15692 / DSM 22644 / CIP 104116 / JCM 14847 / LMG 12228 / 1C / PRS 101 / PAO1), UniProt A0A0F7KYQ8); assay: Enzyme activity: determination of IC50, fluorescence assay with CCF2-FA substrate (VIM-1); assay type: biochemical
[1] = tested on: Escherichia coli expressing NDM-1 (CLB30016); assay: Antibiotic potentiation activity: synergistic concentration (MITC95) with imipenem, OD600 growth; assay type: cell-based
Procedure, shortened: (§1)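 Imipenem (4 μg/ml final; 1 μg/ml as an option) was combined with compound against isolates diluted 1:100 from saline suspensions into 1.1× CAMHB. Growth was assessed by absorbance at 22–24 h, 35 °C.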

[2] = tested on: Klebsiella pneumoniae expressing VIM-1 (IHMA599644); assay: as above; assay type: cell-based
Procedure, shortened: as §1

[3] = tested on: Serratia marcescens expressing IMP-1 (CL5741); assay: as above; assay type: cell-based
Procedure, shortened: as §1

[4] = fluorescence assay with CCF2-FA substrate
[5] = fluorescence assay with CCF2-FA substrate, read-out: VIM-1 IC50
[6] = concentration giving 95% inhibition of bacterial growth
[7] = NDM-1 enzyme, CCF2-FA substrate
[8] = IMP-1 enzyme, CCF2-FA substrate
[9] = VIM-1 IC50, VIM-1 enzyme, CCF2-FA substrate
[10] = (CLB30016, NDM-1), 95% growth inhibition
[11] = Klebsiella pneumoniae IHMA599644 (VIM-1), 95% growth inhibition
[12] = Serratia marcescens CL5741 (IMP-1), 95% growth inhibition
[13] = CLB30016 (NDM-1), 95% inhibition of bacterial growth
[14] = IHMA599644 (VIM-1), 95% inhibition of bacterial growth
[15] = CL5741 (IMP-1), 95% inhibition of bacterial growth
[16] = VIM-1 enzyme, CCF2-FA substrate, read-out: VIM-1 IC50
[17] = NDM-1 enzyme, CCF2-FA fluorescence assay
[18] = IMP-1 enzyme, CCF2-FA fluorescence assay
[19] = VIM-1 enzyme, CCF2-FA fluorescence assay, read-out: VIM-1 IC50
[20] = Escherichia coli expressing NDM-1 (CLB30016), 95% growth inhibition
[21] = Klebsiella pneumoniae expressing VIM-1 (IHMA599644), 95% growth inhibition
[22] = Serratia marcescens expressing IMP-1 (CL5741), 95% growth inhibition

NDM-1, sequence (C7C422 whole entry, looked up, species assumed): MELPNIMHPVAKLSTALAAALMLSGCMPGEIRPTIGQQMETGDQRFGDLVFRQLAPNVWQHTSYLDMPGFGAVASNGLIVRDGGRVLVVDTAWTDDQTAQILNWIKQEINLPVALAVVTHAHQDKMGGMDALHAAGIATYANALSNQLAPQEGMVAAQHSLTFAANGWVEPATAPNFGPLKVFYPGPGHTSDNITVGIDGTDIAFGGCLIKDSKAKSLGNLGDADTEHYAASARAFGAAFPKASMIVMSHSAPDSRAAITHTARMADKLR
IMP-1, sequence (P52699 whole entry, looked up): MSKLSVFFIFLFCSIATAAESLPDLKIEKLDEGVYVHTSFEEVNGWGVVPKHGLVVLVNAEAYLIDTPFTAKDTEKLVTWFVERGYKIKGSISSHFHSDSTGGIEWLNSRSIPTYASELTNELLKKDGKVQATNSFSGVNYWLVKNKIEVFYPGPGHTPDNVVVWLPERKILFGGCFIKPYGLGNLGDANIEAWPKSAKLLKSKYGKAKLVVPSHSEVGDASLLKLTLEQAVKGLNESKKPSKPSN

For COc1cc(-c2cccc(S(N)(=O)=O)c2-c2nnn[nH]2)ccn1 [Example 135, 3-(2-methoxypyridin-4-yl)-2-(1H-tetrazol-5-yl)benzenesulfonamide], the IC50 (NDM-1; [4]) was 0.00447 µM, the IC50 (IMP-1; [4]) was 0.0626 µM and the IC50 (VIM-1; [5]) was 0.0619 µM. For the same compound, the “Escherichia coli expressing NDM-1 (CLB 30016) MITC95” value [1, 6] was 1.172 µM, the “Klebsiella pneumoniae expressing VIM-1 (IHMA 599644) MITC95” value [2, 6] was 18.75 µM and the “Serratia marcescens expressing IMP-1 (CL5741) MITC95” value [3, 6] was 1.172 µM.
NS(=O)(=O)c1cccc(-c2ccc(N3CCC3CO)nc2)c1-c1nnn[nH]1 (stereo in doubt) [Example 636, 3-[6-[(2S)-2-(hydroxymethyl)azetidin-1-yl]-3-pyridyl]-2-(1H-tetrazol-5-yl)benzenesulfonamide] showed an IC50 (NDM-1; [7]) of 0.00154 µM, an IC50 (IMP-1; [8]) of 0.0372 µM and an IC50 (VIM-1; [9]) of 0.0889 µM. For the same compound, the “Escherichia coli MITC95” value [1, 10] was 0.3906 µM, the “Klebsiella pneumoniae MITC95” value [2, 11] was over 200 µM and the “Serratia marcescens MITC95” value [3, 12] was 4.688 µM.
In the case of NCCCN1CC(c2ccc(-c3ccc(C(F)(F)F)c(S(N)(=O)=O)c3-c3nnn[nH]3)cc2)C1 [Example 816, 4′-[1-(3-aminopropyl)azetidin-3-yl]-2-(1H-tetrazol-5-yl)-4-(trifluoromethyl)biphenyl-3-sulfonamide], the IC50 (NDM-1; [4]) is reported as 0.00662 µM, the IC50 (IMP-1; [4]) is reported as 0.0163 µM and the IC50 (VIM-1; [5]) is reported as 0.0135 µM. The “Escherichia coli MITC95” value [1, 13] was 1.563 µM, the “Klebsiella pneumoniae MITC95” value [2, 14] was 12.5 µM and the “Serratia marcescens MITC95” value [3, 15] was 6.25 µM.
NC1(CN2CCC(c3ccc(-c4ccc(C(F)(F)F)c(S(N)(=O)=O)c4-c4nnn[nH]4)cc3)CC2)CC1 [Example 672, 4′-{1-[(1-aminocyclopropyl)methyl]piperidin-4-yl}-2-(1H-tetrazol-5-yl)-4-(trifluoromethyl)biphenyl-3-sulfonamide] showed an IC50 (NDM-1; [7]) of 0.00366 µM, an IC50 (IMP-1; [8]) of 0.00251 µM and an IC50 (VIM-1; [9]) of 0.00338 µM. For the same compound, the “Escherichia coli MITC95” value [1, 10] was 6.25 µM, the “Klebsiella pneumoniae MITC95” value [2, 11] was 75 µM and the “Serratia marcescens MITC95” value [3, 12] was 4.688 µM.
Work on NS(=O)(=O)c1c(C(F)(F)F)ccc([C@H]2CC[C@H](C3CCNCC3)CC2)c1-c1nnn[nH]1 [Example 832, 3-((1r,4r)-4-(piperidin-4-yl)cyclohexyl)-2-(1H-tetrazol-5-yl)-6-(trifluoromethyl)benzenesulfonamide] yielded an IC50 (NDM-1; [4]) of 0.000501 µM, an IC50 (IMP-1; [4]) of 0.00146 µM and an IC50 (VIM-1; [5]) of 0.000212 µM. For the same compound, the “Escherichia coli MITC95” value [1, 13] was 1.563 µM, the “Klebsiella pneumoniae MITC95” value [2, 14] was 4.688 µM and the “Serratia marcescens MITC95” value [3, 15] was 3.125 µM.
Work on NS(=O)(=O)c1cccc(-c2ccc(N3CCC(CO)C3)nc2)c1-c1nnn[nH]1 (stereo not drawn) [Example 622, 3-[6-[3-(hydroxymethyl)pyrrolidin-1-yl]-3-pyridyl]-2-(1H-tetrazol-5-yl)benzenesulfonamide] yielded an IC50 (NDM-1; [7]) of 0.00439 µM, an IC50 (IMP-1; [8]) of 0.0856 µM and an IC50 (VIM-1; [16]) of 0.142 µM. The “Escherichia coli MITC95” value [1, 10] was 0.9766 µM, the “Klebsiella pneumoniae MITC95” value [2, 11] was over 200 µM and the “Serratia marcescens MITC95” value [3, 12] was 6.25 µM.
For NC1(c2ccc(-c3ccc(C(F)(F)F)c(S(N)(=O)=O)c3-c3nnn[nH]3)cc2)CC(O)C1 (stereo not drawn) [Example 728, 4′-(1-amino-3-hydroxycyclobutyl)-2-(1H-tetrazol-5-yl)-4-(trifluoromethyl)biphenyl-3-sulfonamide], the IC50 (NDM-1; [7]) was 0.00259 µM, the IC50 (IMP-1; [8]) was 0.00416 µM and the IC50 (VIM-1; [9]) was 0.004 µM. For the same compound, the “Escherichia coli MITC95” value [1, 10] was 3.125 µM, the “Klebsiella pneumoniae MITC95” value [2, 11] was 25 µM and the “Serratia marcescens MITC95” value [3, 12] was 6.25 µM.
Work on NS(=O)(=O)c1nccc(N2CCCC(Cc3cccnc3)C2)c1-c1nnn[nH]1 (stereo not drawn) [Example 243, 4-[3-(pyridin-3-ylmethyl)piperidin-1-yl]-3-(1H-tetrazol-5-yl)pyridine-2-sulfonamide] yielded an IC50 (NDM-1; [17]) of 0.0671 µM, an IC50 (IMP-1; [18]) of 1.51 µM and an IC50 (VIM-1; [19]) of 0.204 µM. The “Escherichia coli MITC95” value [1, 20] was 18.75 µM, the “Klebsiella pneumoniae MITC95” value [2, 21] was over 200 µM and the “Serratia marcescens MITC95” value [3, 22] was 100 µM.
Compound NS(=O)(=O)c1c(C(F)(F)F)ccc(C2CC2)c1-c1nnn[nH]1 [Example 489, 3-cyclopropyl-2-(1H-tetrazol-5-yl)-6-(trifluoromethyl)benzenesulfonamide] has an IC50 (NDM-1; [17]) of 0.0196 µM, an IC50 (IMP-1; [18]) of 0.0207 µM and an IC50 (VIM-1; [19]) of 0.00983 µM. For the same compound, the “Escherichia coli MITC95” value [1, 20] was 1.563 µM, the “Klebsiella pneumoniae MITC95” value [2, 21] was 9.375 µM and the “Serratia marcescens MITC95” value [3, 22] was 0.7813 µM.
NC1CCC(N2CCC(c3ccc(-c4ccc(C(F)(F)F)c(S(N)(=O)=O)c4-c4nnn[nH]4)cc3)CC2)CC1 (stereo not drawn) [Example 794, 4′-[1-(4-aminocyclohexyl)piperidin-4-yl]-2-(1H-tetrazol-5-yl)-4-(trifluoromethyl)biphenyl-3-sulfonamide] was tested, and the IC50 (NDM-1; [4]) was 0.00644 µM, the IC50 (IMP-1; [4]) was 0.00176 µM and the IC50 (VIM-1; [5]) was 0.011 µM. The “Escherichia coli MITC95” value [1, 13] was 1.563 µM, the “Klebsiella pneumoniae MITC95” value [2, 14] was 50 µM and the “Serratia marcescens MITC95” value [3, 15] was 3.125 µM.
NS(=O)(=O)c1c(C(F)(F)F)ccc(-c2ccc(C3CCN(CC4CNC4)CC3)cc2)c1-c1nnn[nH]1 [Example 671, 4′-[1-(azetidin-3-ylmethyl)piperidin-4-yl]-2-(1H-tetrazol-5-yl)-4-(trifluoromethyl)biphenyl-3-sulfonamide] gave an IC50 (NDM-1; [7]) of 0.00413 µM, an IC50 (IMP-1; [8]) of 0.002 µM and an IC50 (VIM-1; [16]) of 0.00565 µM. The “Escherichia coli MITC95” value [1, 10] was 1.172 µM, the “Klebsiella pneumoniae MITC95” value [2, 11] was 37.5 µM and the “Serratia marcescens MITC95” value [3, 12] was 1.563 µM.
With Nc1ccc(-c2ccc(CC3CCNCC3)c(S(N)(=O)=O)c2-c2nnn[nH]2)cn1 [Example 576, 3-(6-amino-3-pyridyl)-6-(4-piperidylmethyl)-2-(1H-tetrazol-5-yl)benzenesulfonamide] the IC50 (NDM-1; [7]) was 0.0123 µM, the IC50 (IMP-1; [8]) was 0.164 µM and the IC50 (VIM-1; [9]) was 0.0248 µM. For the same compound, the “Escherichia coli MITC95” value [1, 10] was 0.5969 µM, the “Klebsiella pneumoniae MITC95” value [2, 11] was 4.24 µM and the “Serratia marcescens MITC95” value [3, 12] was 6.323 µM.
In the case of Nc1nc2cccc(-c3cccc(S(N)(=O)=O)c3-c3nn[nH]n3)c2[nH]1 [Example 428, 3-(2-amino-1H-benzo[d]imidazol-7-yl)-2-(2H-tetrazol-5-yl)benzenesulfonamide], the IC50 (NDM-1; [17]) is reported as 0.000683 µM, the IC50 (IMP-1; [18]) is reported as 0.345 µM and the IC50 (VIM-1; [19]) is reported as 0.0173 µM. The “Escherichia coli MITC95” value [1, 20] was 0.0625 µM, the “Klebsiella pneumoniae MITC95” value [2, 21] was 1.531 µM and the “Serratia marcescens MITC95” value [3, 22] was 6.25 µM.
In the case of NCCCCN1CC(c2ccc(-c3ccc(C(F)(F)F)c(S(N)(=O)=O)c3-c3nnn[nH]3)cc2)C1 [Example 817, 4′-[1-(4-aminobutyl)azetidin-3-yl]-2-(1H-tetrazol-5-yl)-4-(trifluoromethyl)biphenyl-3-sulfonamide], the IC50 (NDM-1; [4]) is reported as 0.00446 µM, the IC50 (IMP-1; [4]) is reported as 0.015 µM and the IC50 (VIM-1; [5]) is reported as 0.0095 µM. For the same compound, the “Escherichia coli MITC95” value [1, 13] was 1.563 µM, the “Klebsiella pneumoniae MITC95” value [2, 14] was 12.5 µM and the “Serratia marcescens MITC95” value [3, 15] was 6.25 µM.
In the case of N=C(NC1CCNC1)c1ccc(-c2ccc(C(F)(F)F)c(S(N)(=O)=O)c2-c2nn[nH]n2)cc1 (stereo not drawn) [Example 564, N-(pyrrolidin-3-yl)-3′-sulfamoyl-2′-(2H-tetrazol-5-yl)-4′-(trifluoromethyl)biphenyl-4-carboximidamide], the IC50 (NDM-1; [7]) is reported as 0.262 µM, the IC50 (IMP-1; [8]) is reported as 0.301 µM and the IC50 (VIM-1; [16]) is reported as 0.0363 µM. The “Escherichia coli MITC95” value [1, 10] was 25 µM, the “Klebsiella pneumoniae MITC95” value [2, 11] was 50 µM and the “Serratia marcescens MITC95” value [3, 12] was 25 µM.
NS(=O)(=O)c1cccc(-c2ccc(CNC(CO)CO)cc2)c1-c1nnn[nH]1 [Example 374, 4′-({[2-hydroxy-1-(hydroxymethyl)ethyl]amino}methyl)-2-(1H-tetrazol-5-yl)biphenyl-3-sulfonamide] showed an IC50 (NDM-1; [17]) of 0.016 µM, an IC50 (IMP-1; [18]) of 0.264 µM and an IC50 (VIM-1; [19]) of 0.277 µM. The “Escherichia coli MITC95” value [1, 20] was 0.7813 µM, the “Klebsiella pneumoniae MITC95” value [2, 21] was 37.5 µM and the “Serratia marcescens MITC95” value [3, 22] was 3.125 µM.

— US9708336B2, “Metallo-beta-lactamase inhibitors” (priority 2014, dated 2017)
